Experimental data from patent US6383488B1, “Pre-M/M epitopes of dengue virus, synthetic peptides, chimeric proteins and their use” (priority 1997, dated 2002).
Entries after “also recorded” stand apart in the source; their conditions may differ.

B1: PD33 (protein)
chain: MALVELKVPDIGGHENVDIIAVEVNVGDTIAVDDTLITLDLESVALTPHSGMGLETRAETWMSSEGAWKHAQRVESWILRNPRFLEMDVPAEVAGVVKEVKVKVGDKISEGGLIVVVEAEGTAAAPKAEAAAAPAQEAPKAAAPAPQAAQFGGSADAEYDVVVLGGGPGGYSAAFAAADEGLKVAIVERYKTLGGVCLNVGCIPSKALLHNAAVIDEVRHLAANGIKYPEPELDIDMLRAYKDGVVSRLTGGLAGMAKSRKVDVIQGDGQFLDPHHLEVSLTAGDAYEQAAPTGEKKIVAFKNCIIAAGSRVTKLPFIPEDPRIIDSSGALALKEVPGKLLIIGGGIIGLEMGTVYSTLGSRLDVVEMMDGLMQGADRDLVKVWQKQNEYRFDNIMVNTKTVAVEPKEDGVYVTFEGANAPKEPQRYDAVLVAAGRAPNGKLISAEKAGVAVTDRGFIEVDKQMRTNVPHIYAIGDIVGQPMLAHKAVHEGHVAAENCAGHKAYFDARVIPGVAYTSPEVAWVGETELSAKASGRKITKANFPWAASGRAIANGCDKPFTKLIFDAETGRIIGGGIVGPNGGDMIGEVCLAIEMGCDAADIGKTIHPHPTLGESIGMAAEVALGTCTDLPPQKKK

Key:
[1] = tested on: spleen T lymphocytes cultured with dengue 2 virus; assay: In vitro blastogenesis assay of spleen T lymphocytes from peptide-immunized mice; assay type: cell-based, BALB/c mice; conditions: mice immunized with non-conjugated peptides; cells cultured with dengue 2 virus
Method: T cells from 19-6 and 19-5 immunized mice proliferated in an in vitro blastogenesis assay when they were cultured with the dengue 2 virus. […] It could contain a T cell cryptic epitope, being recognized in the free form of peptide but not like a result of the immunodominant epitopes presentation and processing of the virus in a natural infection.
FIG. 5. Proliferative response to dengue 2 virus antigens (at concentrations of 10, 20 and 40 m g/ml) of spleen T cells from peptides-immunized mice 19-6, 19-5 and 20-2.

[2] = tested on: anti-peptide antibodies in sera of Dengue patients; assay: Indirect ELISA to detect anti-peptide antibodies, human sera; assay type: binding; conditions: 118 sera of Dengue patients diluted 1/200; for Percentage of positivity of human sera to peptide: peptide coated at 10 µg/ml
Method: Peptides 19-6, 20-1, 20-2, 20-3 were fixed to the plates in a 10 m g/ml concentration in coating buff they were incubated at 4 C. overnight Sera were added diluted 1/200 in PBS-Tween 20. Finally, total human /peroxidase anti-immunoglobuline conjugate was added, and subsequently, the substrate (orthophenylendiamine, H2O2, 0.05 M phosphate citrate buffer, pH 5) was added. The reading was carried out in an ELISA reader at 492 nm and the cut-off value for each peptide was determined.
The sera used were from subjects having viral clinical infection that was serologically diagnosed as Dengue by the techniques of Inhibition of the hemagglutination (Clarke, D. H. y Casals, J. 1958. Techniques for hemagglutination and hemagglutination—inhibition with Arthropod Borne Virus. Am. J. Trop. Med. Hyg. 7 p.561) and ELISA of inhibition (Vzquez, S., Fernndez, R. 1989. Utilizacin de un mtodo de ELISA de Inhibicin en el diagnstico serolgico de dengue. Rev. Cub. Med. Trop. 41(1) p18-26) for total anti-dengue antibodies.
The study induded 118 sera from patents of the epidemics occurred in Cuba 1981, Panama 1994 and Costa Rica 1994. Dengue virus 2 was isolated in these epidemics, besides serotype 1 and 4 in Costa Rica; they were classified according to the titers of inhibiting antibodies of hemagglutination in cases of primary and secondary infections.

[3] = tested on: Dengue 2 virus (strain A 15); assay: In vitro plaque-reduction neutralization test (PRNT) of anti-peptide sera, serotype D2; assay type: cell-based; conditions: sera of Balb/c mice immunized with peptide-BSA conjugate; titer = dilution giving 50% plaque number reduction; BHK-21 cells
Method: Neutralization technique was carried out according to Morens (Morens, D. M. et al. 1985. Simplified plaque reduction neutralization assay for dengue viruses by semimicro methods in BHK-21 cells: Comparison of the BHK suspension test with standard plaque reduction neutralization. J. Clin. Microbiol. 22 p.250).
Dilutions of anti-peptide sera and of anti-BSA controls and negative sera from 1/10 to 1/640 were prepared. Each dilution of sera was put into contact with a dilution of the virus (strain A 15 of Dengue 2) having 15-20 PFU/50 ml.
The mixture was incubated at 37 C. during 1 hour. A total of 50 ml of each mixture were added in triplicate to BHK-21 cells in plates of 24 wells, and they were incubated in a CO2 incubator at 37 C. during 4 hours. Then, 0.5 ml of carboxymethylcellulose-containing medium were added, and it was incubated again for several days considering the viral serotype used. After these days tinction and the count of lysis plaques produced by the virus were carried out.
Titer was expressed in each case as the dilution at which it was obtained the 50% of plaque number reduction.

[4] = tested on: Dengue virus serotype 1 (D1); assay: In vitro plaque-reduction neutralization test (PRNT) of anti-peptide sera, serotype D1; assay type: cell-based; conditions: sera of Balb/c mice immunized with peptide-BSA conjugate; titer = dilution giving 50% plaque number reduction; BHK-21 cells
[5] = tested on: four Dengue virus serotypes; assay: Induction of neutralizing antibodies (summary statement); assay type: cell-based; conditions: against the four Dengue virus serotypes; immunized mice
Method: Peptides were inoculated in Balb/c mice both conjugated or not to a carrier protein. The sera obtained after immunization with the conjugated peptides were tested by in vitro neutralization by reducing the number of plaques and by ELISA. We also studied the active protection against a Dengue 2 viral challenge in the immunized mice.

[6] = tested on: Dengue virus serotype 4 (D4); assay: In vitro plaque-reduction neutralization test (PRNT) of anti-peptide sera, serotype D4; assay type: cell-based; conditions: sera of Balb/c mice immunized with peptide-BSA conjugate; titer = dilution giving 50% plaque number reduction; BHK-21 cells
[7] = tested on: Dengue virus serotype 3 (D3); assay: In vitro plaque-reduction neutralization test (PRNT) of anti-peptide sera, serotype D3; assay type: cell-based; conditions: sera of Balb/c mice immunized with peptide-BSA conjugate; titer = dilution giving 50% plaque number reduction; BHK-21 cells
[8] = tested on: live, mouse-adapted dengue-2 virus (strain A15); assay: Protection assay, intracranial challenge of immunized mice; assay type: in vivo, Balb/c mice; conditions: mice immunized with conjugated peptides; 100 LD50 intracranial; observed up to 21 days; Fisher's test, p<0,05
Method: Male Balb/c mice of 4-6 weeks old were immunized with 50 mg of the peptide-BSA conjugate intraperitoneally. In addition, two immunization schemes were performed, one with BSA and the other with PBS. A total of 4 inoculations were carried out, each of them 15 days apart. The Freund's Complete Adjuvant was used in the first doses, and the Freund's Incomplete Adjuvant in the others. A blood sample was extracted from the retro-orbital vein seven days after the last inoculation.
Mice were challenged 7 days after the last immunization by intracraneal injection with an dilution of 1/2500 (corresponding to 100 LD50 lethal doses) of live, mouse-adapted dengue-2 virus (strain A15). […] Data were tested for statistical significance using Fisher's test.

[9] = tested on: synthetic peptides; assay: ELISA of sera from mice immunized with fusion proteins, against the synthetic peptides; assay type: binding; conditions: mouse immunization with semipurified fusion proteins
Source text: Mouse immunization with PD33 and PD34 fusion proteins semipurified by a non-denaturalizing protocol, has elicited high titers against them in ELISA (up to 1/100 000), and at the same time antibodies with titers up to 1/4000 in ELISA against the synthetic peptides have been obtained.

Molecule | Virus-specific proliferative response of spleen T lymphocytes [1] | Average of the reactivity index (optical density of the sample/cut-off value) [2] | Percentage of positivity of human sera to peptide [2] | Anti-peptide neutralization titer, D2 [3] | Anti-peptide neutralization titer, D1 [4] | Induction of neutralizing antibody production [5] | Anti-peptide neutralization titer, D4 [6] | Anti-peptide neutralization titer, D3 [7] | Level of protection (survival) after Dengue 2 virus challenge [8] | ELISA antibody titers against the synthetic peptides [9]
CEDTITYKCPLLRQNEPEDIDCW [B 20-2] | did not elicit a significant proliferative response | 1.57 | 77.1% | – | – | – | – | – | – | –
LETRTETWMSSEGAWKHAQRIE [B 20-3] | – | 1.49 | 83.1% | 1/80 | 1/110 | able to induce neutralizing antibody production | 1/80 | 1/80 | – | –
LTTRNGEPHMIVMRQEKGKSLLFKTGDGV [B 19-6] | Virus-specific proliferative responses were demonstrated; also recorded: proliferated | 1.07 | 56.8% | 1/180 | 1/100 | able to induce neutralizing antibody production | 1/160 | 1/60 | statistically significant; also recorded: statistically significative level of protection | –
NSTSTWVTYGTCTTTGEHRREKRSV [B 20-1] | – | 1.52 | 79.6% | – | – | – | – | – | statistically significant; also recorded: statistically significative level of protection | –
RQNEPEDIDCWCNSTSTWVTYGTCTTTGEHRREKRS [B 19-5] | Virus-specific proliferative responses were demonstrated; also recorded: proliferated | – | – | – | – | – | – | – | statistically significant; also recorded: statistically significative level of protection | –
B1 | – | – | – | – | – | – | – | – | – | up to 1/4000
